A word on the IC50: it is the concentration at which inhibition is half-maximal.

A value given as a limit tells only on which side of the number the result lay.

The first assay deals with neutrophils. Description: Neutrophil calcium flux assay (5-OXO-ETE-stimulated, Indo-1 fluorescence). The assay is classed as cell-based. The settings on record: 5-OXO-ETE-stimulated calcium flux. The procedure, abridged: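 Indo-1-loaded neutrophils (5×10^6 cells/ml, 30 min at 37 °C) in HBSS with Ca/Mg and HEPES, pre-incubated 5 min with antagonist or buffer. Stimulated with 5-OXO-ETE added at 200 nM (4× stock); fluorescence (ex 331/em 410 nm) read every 5 s for 30 cycles, expressed as net fluorescence.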
For orientation: Calcium assays in cells follow changes in intracellular calcium, usually with a dye or a luminescent sensor.
Consider `C[C@H](CC(=O)O)CC(=O)c1c(CCCCOCc2ccc(F)cc2)n(C)c2ncc(C#N)cc12` [Compound I-368], for which the 50% inhibitory concentration (IC50) lay within 100 to 300 nM.

Turning to `CC(CC(=O)O)CC(=O)c1c(CCCCCC(O)c2cccc(C#N)c2)n(C)c2ncc(Cl)cc12` (single isomer, unassigned) [Compound I-306], the IC50 is above 300 nM.

On to `CC(CC(=O)O)CC(=O)c1c(CCCCCC(O)c2cccc(C(=O)N(C)C)c2)n(C)c2ncc(C#N)cc12` (single isomer, unassigned) [Compound I-318], for which the 50% inhibitory concentration (IC50) is 100 to 300 nM.

For `CC(CC(=O)O)CC(=O)n1c(CCCCCCc2cccc(Cl)c2)cc2ncc(Cl)cc21` (stereo not drawn) [Compound I-305], the IC50 is below 100 nM.

The same assay, now with this note: Neutrophil, 5-OXO-ETE-stimulated calcium flux.
`CC(CC(=O)O)CC(=O)c1c(CCCCCC(O)c2cccc(C#N)c2)n(C)c2ncc(Cl)cc12` (stereo not drawn) [Compound I-286]: the half-inhibitory concentration (IC50) was below 100 nM.

In the case of `C[C@@H](CC(=O)O)CC(=O)c1c(CCCCO[C@H](C)c2ccccc2)n(C)c2ncc(C#N)cc12` [Compound I-433], the IC50 is above 300 nM.

In the case of `C[C@H](CC(=O)O)CC(=O)c1c(CCCCOCC2(C(F)(F)F)CC2)n(C)c2ccc(Cl)cc12` [Compound I-74], the IC50 was above 300 nM.

Turning to `CC(=O)Nc1cccc(C(O)CCCCCc2c(C(=O)CC(C)CC(=O)O)c3cc(C#N)cnc3n2C)c1` (stereo not drawn) [Compound I-312], the IC50 was above 300 nM.

For `CC(CC(=O)O)CC(=O)c1c(CCCCCCc2cscn2)n(C)c2ncc(C#N)cc12` (stereo not drawn) [Compound I-373], the IC50 was 100 to 300 nM.

For the molecule `CC(C)[C@@H](CC(=O)O)CC(=O)c1c(CCCCOCc2ccccc2)n(C)c2ncc(C#N)cc12` [Compound I-437], the IC50 was above 300 nM.

With `C[C@H](CC(=O)O)CC(=O)c1c(CCCCOCc2cccc(C#N)c2)n(C)c2ccncc12` [Compound I-396], the IC50 was below 100 nM.

For the molecule `CC(CNC(=O)c1c(CCCCOCc2cccc(Cl)c2)n(C)c2ncc(C#N)cc12)C(=O)O` (stereo not drawn) [Compound I-242], the IC50 was above 300 nM.

In the case of `C[C@H](CC(=O)O)CC(=O)c1c(CCCCOCc2cc(Cl)cc(Cl)c2)n(C)c2ncc(C#N)cc12` [Compound I-385], the IC50 is below 100 nM.

`Cn1c(CCCCCCc2cccc(Cl)c2)c(C(=O)N2CC[C@H](C(=O)O)C2)c2cc(Cl)ccc21` [Compound I-118]: the IC50 was below 100 nM.

As to `Cn1c(CCCCCCC#CC2CC(F)(F)C2)c(C(=O)N2CC[C@H](c3noc(=O)[nH]3)C2)c2cc(Br)cnc21` [Compound I-457], the IC50 is above 300 nM.

`Cn1ccc(C(=O)N2CC[C@H](C(=O)O)C2)c1CCCCOCc1cccc(Cl)c1` [Compound I-162]: the IC50 was above 300 nM.

As to `CC(CC(=O)O)CC(=O)c1c(CCCCCCc2cccc(Cl)c2)n(C)c2ccc(C(F)(F)F)cc12` (stereo not drawn) [Compound I-58], the IC50 is below 100 nM.

In the case of `Cn1c(CCCCOCc2cccc(Cl)c2)c(C(=O)N2CC[C@H](C(=O)O)C2)c2cnccc21` [Compound I-442], the IC50 was above 300 nM.

As for `C[C@H](CC(=O)O)CC(=O)c1c(CCCCOCc2ccc(F)cc2)n(C)c2ncc(Cl)cc12` [Compound I-215], the IC50 is above 300 nM.

For the molecule `C[C@H](CC(=O)O)CC(=O)c1c(CCCCOCc2cccc(Cl)c2)[nH]c2ccc(C#N)cc12` [Compound I-382], the IC50 was below 100 nM.

For `C[C@H](CC(=O)O)CC(=O)c1c(CCCCOCc2cccc(F)c2)n(C)c2ncc(Cl)cc12` [Compound I-100], the IC50 is 100 to 300 nM.

Consider `CC(CC(=O)O)CC(=O)c1c(CCCCCCc2cccc(Cl)c2)n(CCN(C)C)c2ncc(C#N)cc12` (stereo not drawn) [Compound I-281], for which the half-inhibitory concentration (IC50) is above 300 nM.

Regarding `C[C@@H](CC(=O)NO)CC(=O)c1c(CCCCCCc2cccc(Cl)c2)n(C)c2ccc(Cl)cc12` [Compound I-18], the IC50 is above 300 nM.

For `C[C@@H](CC(=O)O)CC(=O)c1c(CCCCCOCc2ccccc2)n(C)c2ncc(C#N)cc12` [Compound I-423], the IC50 is above 300 nM.

On to `Cn1c(CCCCCCc2cccc(Cl)c2)c(C(=O)N2CCC(C)(C(=O)O)C2)c2cc(Cl)ccc21` (stereo not drawn) [Compound I-157], for which the half-inhibitory concentration (IC50) was above 300 nM.

In the case of `Cn1c(CCCCCCc2cccc(Cl)c2)c(CN2CC[C@H](C(=O)O)C2)c2cc(Cl)ccc21` [Compound I-303], the concentration for half-maximal inhibition (IC50) was above 300 nM.

For `C[C@H](CC(=O)NCCS(=O)(=O)O)CC(=O)c1c(CCCCOCc2ccccc2)n(C)c2ncc(C#N)cc12` [Compound I-461], the IC50 was above 300 nM.

As for `C[C@@H](CC(=O)O)CC(=O)c1c(CCCCOCc2ccc(F)cc2)n(C)c2ncc(C#N)cc12` [Compound I-369], the IC50 is above 300 nM.

Turning to `Cn1c(CCCCCCc2cccc(Cl)c2)c(C(=O)N2CCC[C@H]2CC(=O)O)c2cc(Cl)ccc21` [Compound I-121], the IC50 is above 300 nM.

Consider `Cn1cc(-c2cccc(Cl)c2)c(C(=O)N2CC[C@H](C(=O)O)C2)c1CCCCOCc1cccc(Cl)c1` [Compound I-167], for which the IC50 was above 300 nM.

Regarding `COC(=O)C[C@@H](C)CC(=O)c1c(CCCCOCc2ccccc2)n(C)c2ncc(C#N)cc12` [Compound I-449], the half-inhibitory concentration (IC50) was above 300 nM.

In the case of `Cn1c(CCCCCCc2cccc(Cl)c2)c(C(=O)N2CC[C@H](C(=O)O)C2)c2cc(C#N)cnc21` [Compound I-338], the IC50 was below 100 nM.

In the case of `C[C@H](CC(=O)O)CC(=O)c1c(CCCCCNc2cccnc2)n(C)c2ncc(Cl)cc12` [Compound I-140], the IC50 was above 300 nM.

Consider `C[C@H](CC(=O)O)CC(=O)c1c(CCOCCCc2cccc(Cl)c2)n(C)c2ccc(Cl)cc12` [Compound I-62], for which the IC50 was below 100 nM.

As to `Cc1nc2c(cc1C#N)c(C(=O)CC(C)CC(=O)O)c(CCCCOCc1cccc(Cl)c1)n2C` (stereo not drawn) [Compound I-381], the IC50 was above 300 nM.

Take `C[C@H](CC(=O)O)CC(=O)c1c(CCCCCCc2cccnc2)n(C)c2ccc(Cl)cc12` [Compound I-53]: the IC50 was below 100 nM.

For `C[C@@H](CC(=O)O)CC(=O)c1c(CCCCOCc2cccc(C#N)c2)n(C)c2cnc(Cl)cc12` [Compound I-405], the IC50 is above 300 nM.

As to `C[C@H](CC(=O)O)NC(=O)c1c(CCCCCCc2cccc(Cl)c2)n(C)c2ccc(Cl)cc12` [Compound I-237], the IC50 was above 300 nM.

With `C[C@H](CC(=O)O)CC(=O)c1c(COCCCCc2cccc(Cl)c2)n(C)c2ccc(Cl)cc12` [Compound I-63], the IC50 is below 100 nM.

As to `C[C@H](CC(=O)O)CC(=O)c1c(CCCCCCC#CC2CC(F)(F)C2)n(C)c2ncc(Cl)cc12` [Compound I-320], the IC50 is below 100 nM.

For `C[C@H](CC(=O)NCC(=O)O)CC(=O)c1c(CCCCOCc2ccccc2)n(C)c2ncc(C#N)cc12` [Compound I-459], the IC50 was above 300 nM.

Regarding `C[C@@H](CC(=O)O)CC(=O)c1c(CCCCOCc2cccc(F)c2)n(C)c2ncc(C#N)cc12` [Compound I-294], the IC50 was above 300 nM.

Turning to `C[C@@H](CC(=O)O)CC(=O)c1c(CCCCCCC#CC2CC(F)(F)C2)n(C)c2ncc(C#N)cc12` [Compound I-329], the IC50 is above 300 nM.

For `Cn1nc(-c2cccc(Cl)c2)c(C(=O)N2CC[C@H](C(=O)O)C2)c1CCCCOCc1cccc(Cl)c1` [Compound I-191], the half-maximal inhibitory concentration (IC50) is above 300 nM.

With `C[C@@H](CC(=O)c1c(CCCCOCc2cccc(Cl)c2)n(C)c2ncc(Cl)cc12)Cc1nnn[nH]1` [Compound I-355], the IC50 is below 100 nM.

In the case of `Cn1c(CCCCCCc2cccc(Cl)c2)c(C(=O)N2CC(C(=O)O)C2)c2cc(Cl)cnc21` [Compound I-153], the IC50 is above 300 nM.

For the molecule `C[C@H](CC(=O)O)CC(=O)c1c(CCCCCNc2cccc(Cl)c2)n(C)c2ccc(Cl)cc12` [Compound I-79], the IC50 is below 100 nM.

Take `C[C@H](CC(=O)O)CC(=O)c1c(CCCCC[C@H](O)c2cccc(Cl)c2)n(C)c2ncc(Cl)cc12` [Compound I-110]: the concentration for half-maximal inhibition (IC50) is below 100 nM.

`C[C@H](CC(=O)O)CC(=O)c1c(CCCCCC#CC2CC(F)(F)C2)n(C)c2ccc(Cl)cc12` [Compound I-330]: the IC50 is above 300 nM.

Turning to `C[C@H](CC(=O)O)CC(=O)c1c(CCOCCNc2cccnc2)n(C)c2ccc(Cl)cc12` [Compound I-137], the IC50 was above 300 nM.

On to `Cn1c(COCCCCC#CC2CC(F)(F)C2)c(C(=O)N2CC[C@H](C(=O)O)C2)c2cc(Cl)ccc21` [Compound I-349], for which the IC50 was above 300 nM.

For `CCC#CCCCCCCc1c(C(=O)C[C@H](C)CC(=O)O)c2cc(Cl)ccc2n1C` [Compound I-116], the IC50 is below 100 nM.

As for `CC(CC(=O)NS(C)(=O)=O)CC(=O)c1c(CCCCOCc2cccc(Cl)c2)n(C)c2ccc(C#N)cc12` (stereo not drawn) [Compound I-300], the IC50 is above 300 nM.

For `Cn1c(CCCCCCc2cccc(Cl)c2)c(C(=O)N2CC[C@H](c3nnn[nH]3)C2)c2cc(C#N)cnc21` [Compound I-223], the IC50 was below 100 nM.

Consider `Cn1c(CCCCCCC#CC2CC(F)(F)C2)c(C(=O)N2CC[C@H](C(=O)O)C2)c2cc(Cl)ccc21` [Compound I-339], for which the IC50 was below 100 nM.

For `Cn1c(CCCOCCc2cccc(Cl)c2)c(C(=O)N2CC[C@H](C(=O)O)C2)c2cc(Cl)cnc21` [Compound I-174], the IC50 is above 300 nM.

`C[C@H](OCCCCc1c(C(=O)N2CC[C@H](C(=O)O)C2)c2cc(C#N)cnc2n1C)c1ccccc1` [Compound I-453]: the IC50 was above 300 nM.

For `Cn1c(CCCCCCCC#CC2CC(F)(F)C2)c(C(=O)N2CC[C@H](c3nnn[nH]3)C2)c2cc(C#N)cnc21` [Compound I-358], the IC50 was above 300 nM.

Regarding `CCCCCCc1cc2ccc(Cl)cc2n1C(=O)C[C@H](C)CC(=O)O` [Compound I-12], the IC50 is above 300 nM.

On to `CC(CC(=O)O)CC(=O)c1c(CCCCOCc2cccc(F)c2)n(C)c2ncc(C#N)cc12` (stereo not drawn) [Compound I-231], for which the IC50 is below 100 nM.

With `C[C@H](CC(=O)O)CC(=O)c1c(CCCCCNC(=O)C2CC2)n(C)c2ccc(Cl)cc12` [Compound I-127], the IC50 was above 300 nM.

For `Cn1c(CCCCCCC#CC2CC(F)(F)C2)c(C(=O)N2CC[C@H](C(=O)NS(C)(=O)=O)C2)c2cc(C#N)cnc21` [Compound I-363], the concentration for half-maximal inhibition (IC50) is above 300 nM.

Regarding `Cn1c(CCCCCCC#CC2CC(F)(F)C2)c(C(=O)N2CC[C@H](C(=O)N[C@@H](CCC(N)=O)C(=O)O)C2)c2cc(C#N)cnc21` [Compound I-463], the IC50 was above 300 nM.

For the origin of these results see patent publication US20250154145A1, “OXER1 ANTAGONISTS AND USES THEREOF” (Fairhaven Pharmaceuticals Ins., priority 2021, published 2025).
